Consider 26 compounds from ChEMBL document CHEMBL4020781, “Discovery of potent and orally active 1,4-disubstituted indazoles as novel allosteric glucokinase activators” (Bioorg Med Chem Lett, 2017).

The target of one data set is T1, Hexokinase-4 (Homo sapiens, UniProt P35557).
T1 sequence (P35557 whole entry): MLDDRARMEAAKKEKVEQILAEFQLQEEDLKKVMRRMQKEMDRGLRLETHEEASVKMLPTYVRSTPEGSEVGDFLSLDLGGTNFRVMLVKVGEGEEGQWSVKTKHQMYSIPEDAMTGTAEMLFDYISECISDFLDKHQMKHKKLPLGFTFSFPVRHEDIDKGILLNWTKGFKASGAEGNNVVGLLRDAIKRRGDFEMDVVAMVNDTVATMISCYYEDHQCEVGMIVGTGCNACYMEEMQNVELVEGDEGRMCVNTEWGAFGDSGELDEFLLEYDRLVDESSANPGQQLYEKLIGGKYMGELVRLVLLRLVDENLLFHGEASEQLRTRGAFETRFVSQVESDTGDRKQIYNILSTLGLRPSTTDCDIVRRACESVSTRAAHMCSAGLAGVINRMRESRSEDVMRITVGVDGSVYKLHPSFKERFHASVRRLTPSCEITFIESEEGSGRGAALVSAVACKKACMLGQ
Briefly: Activation of full length human C-terminal FLAG-tagged glucokinase (12 to 465 residues) expressed in Escherichia coli DH10b using glucose as substrate after 60 mins in presence of ATP by kinase-glo luminescence assay.

The target in data set [1] is T2, Hexokinase-4 (Homo sapiens) (UniProt P35557).
T2 sequence (whole entry): T1 sequence (P35557 whole entry)
Briefly: Activation of full length human C-terminal FLAG-tagged glucokinase (12 to 465 residues) expressed in Escherichia coli DH10b using glucose as substrate after 60 mins in presence of ATP by kinase-glo luminescence assay relative to control. Background: Kinase-Glo reads ATP consumption through a luciferase reaction.

Data set [2] in a line: Plasma protein binding in human. It is filed as ADME, cell-free. The settings on record: read-out: PPB (converted).
The next data set deals with hERG (KCNH2) (Homo sapiens, UniProt Q12809). Briefly: Inhibition of human ERG at 10 uM.
hERG (KCNH2), sequence (Q12809 whole entry): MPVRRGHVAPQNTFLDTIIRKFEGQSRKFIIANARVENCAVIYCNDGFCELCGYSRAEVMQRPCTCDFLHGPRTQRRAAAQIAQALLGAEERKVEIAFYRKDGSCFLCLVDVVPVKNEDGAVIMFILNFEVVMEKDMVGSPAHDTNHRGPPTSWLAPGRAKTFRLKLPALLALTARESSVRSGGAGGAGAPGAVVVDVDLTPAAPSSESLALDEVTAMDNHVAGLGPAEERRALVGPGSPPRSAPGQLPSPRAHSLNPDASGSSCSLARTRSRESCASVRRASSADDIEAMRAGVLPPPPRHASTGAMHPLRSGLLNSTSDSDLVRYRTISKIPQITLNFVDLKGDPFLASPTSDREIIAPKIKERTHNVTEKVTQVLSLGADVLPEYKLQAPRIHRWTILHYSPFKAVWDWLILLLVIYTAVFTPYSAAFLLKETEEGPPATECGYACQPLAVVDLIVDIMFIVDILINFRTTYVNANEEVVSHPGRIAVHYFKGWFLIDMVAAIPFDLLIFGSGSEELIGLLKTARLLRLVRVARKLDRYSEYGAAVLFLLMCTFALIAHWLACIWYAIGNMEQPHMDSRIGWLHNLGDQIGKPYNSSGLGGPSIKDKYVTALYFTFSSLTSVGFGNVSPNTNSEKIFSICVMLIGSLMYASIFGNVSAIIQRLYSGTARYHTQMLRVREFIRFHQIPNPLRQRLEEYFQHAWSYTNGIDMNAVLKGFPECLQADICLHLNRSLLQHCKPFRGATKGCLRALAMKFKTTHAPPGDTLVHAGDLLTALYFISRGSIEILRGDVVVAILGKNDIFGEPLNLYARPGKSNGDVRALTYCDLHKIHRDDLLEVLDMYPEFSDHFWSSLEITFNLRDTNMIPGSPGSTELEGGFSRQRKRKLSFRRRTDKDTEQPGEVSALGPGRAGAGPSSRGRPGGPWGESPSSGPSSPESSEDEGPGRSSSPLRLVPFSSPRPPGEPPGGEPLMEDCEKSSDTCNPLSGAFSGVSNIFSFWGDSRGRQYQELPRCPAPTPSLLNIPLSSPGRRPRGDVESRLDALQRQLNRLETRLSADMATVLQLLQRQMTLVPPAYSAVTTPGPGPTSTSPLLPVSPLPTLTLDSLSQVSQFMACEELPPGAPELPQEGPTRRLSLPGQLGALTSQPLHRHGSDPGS
A short description of data set [3]: Hepatic extraction ratio in human liver microsomes. The class given is ADME, microsome. The settings on record: read-out: ERH. In general terms: Microsomes from liver hold many membrane-bound enzymes, among them those of drug oxidation.
Data set [4] concerns the target T2, Hexokinase-4 (Homo sapiens). The data set can be described thus: Potency index, ratio of (S)-N-(5-chlorothiazol-2-yl)-2-(4-(cyclopropylsulfonyl)-6-methyl-2-oxopyridin-1(2H)-yl)-3-(tetrahydro-2H-pyran-4-yl)propanamide EC50 to compound EC50 for full length human C-terminal FLAG-tagged glucokinase (12 to 465 residues).
Data set [5] is described as follows: Hepatic extraction ratio in rat liver microsomes. It is filed as ADME, microsome. The settings on record: read-out: ERH.
Data set [6] concerns Mus musculus. The data set can be described thus: Antidiabetic activity in C57BL/6J mouse assessed as glucose lowering effect at 30 mg/kg, po. The class given is functional, organism-based.
A short description of data set [7]: Hepatic extraction ratio in mouse liver microsomes. It is filed as ADME, microsome. The settings on record: read-out: ERH.
The nature of data set [8]: Half life in orally dosed rat. It is filed as ADME, organism-based. The settings on record: in vivo, po.
A short description of data set [9]: Clearance in orally dosed rat. The class given is ADME, organism-based. The settings on record: in vivo, po.
A further data set concerns Rattus norvegicus. Briefly: Volume of distribution in orally dosed rat. The class given is ADME, organism-based. The settings on record: in vivo, po.
Data set [10] is described as follows: Oral bioavailability in rat. The class given is ADME, organism-based. The settings on record: in vivo.
Data set [11] deals with Mus musculus. Briefly: Antidiabetic activity in ob/ob mouse assessed as reduction in glucose excursion at 30 mg/kg, po by oral glucose tolerance test. The class given is functional, organism-based.

pEC50: −log10 of the molar value. Calls of active or inactive are those of the source. The rule behind the calls is not given here. Where only a bound is given, the exact number is not on record here.

With `CC(C)(C)S(=O)(=O)c1cnn(C(CC2CCOCC2)C(=O)Nc2ncc(F)s2)c1` (racemic), the pEC50 (as a rule, the EC50 on a negative log10 scale, so that one unit is a factor of ten) on Hexokinase-4 was less than 4.00. Moreover, in data set [1], the %max came out at 0%.

In the case of `O=C(Nc1ncc(Cl)s1)[C@H](CC1CCOCC1)n1ncc2c(S(=O)(=O)C3CC3)cccc21`, the negative-log EC50 (pEC50) on Hexokinase-4 is 7.51. The fraction unbound in data set [2] is 0.0004. Moreover, the inhibition (commonly the share of the control response that was lost under treatment) at 10 µM on hERG (KCNH2) lay in the range of 85 to 93%. The hepatic extraction ratio in data set [3] stood at 0.67. The %max in [1] turned out to be 65%. The Ratio EC50 in data set [4] stood at 40.

As for `O=C(Nc1ncc(Cl)s1)[C@H](CC1CCCC1)n1cc(S(=O)(=O)C2CC2)cn1`, at Hexokinase-4, the pEC50 is 6.20. In addition, the figures for the hepatic extraction ratio in [5] and in [3] were 0.85 and 0.91, respectively. Moreover, the %max in data set [1] was 88%.

Regarding `O=C(Nc1ncc(F)s1)[C@H](CC1CCOCC1)n1ncc2c(S(=O)(=O)C3CC3)cccc21`, at Hexokinase-4, the pEC50 is 7.40. For the same compound, the inhibition at 10 µM against hERG (KCNH2) turned out to be 84%. The %max in [1] was 83%.

In the case of `Cc1ccc(NC(=O)C(CC2CCOCC2)n2ncc3c(S(=O)(=O)C4CC4)cccc32)nn1` (racemic), the pEC50 at Hexokinase-4 was 5.10. In addition, testing at 10 µM against hERG (KCNH2) gave an inhibition of 57%. In addition, the %max in data set [1] is 50%.

For the compound `O=C(Nc1ncc(F)s1)[C@H](CC1CCOCC1)n1ncc2c(S(=O)(=O)C3CC3)ccnc21`, at Hexokinase-4, the pEC50 is 6.92. For the same compound, the inhibition at 10 µM at hERG (KCNH2) was found to be 71%. For the same compound, in [1], the %max is 74%.

For `O=C(Nc1cnccn1)[C@H](CC1CCOCC1)n1ncc2c(S(=O)(=O)C3CC3)cccc21`, the pEC50 at Hexokinase-4 is 6.10. Further, the inhibition at 10 µM against hERG (KCNH2) amounted to 45%. Besides, the %max in [1] was 95%.

Turning to `O=C(Nc1ncc(Cl)s1)[C@H](CC1CCOCC1)n1cc(S(=O)(=O)C2CC2)cn1`, the pEC50 on Hexokinase-4 is 5.70. The hepatic extraction ratio in [5] and in data set [3] was 0.31 to 0.39 throughout. Also, the %max in data set [1] was found to be 35%.

`O=C(Nc1ncc(F)s1)C(CC1CCOCC1)n1cc(S(=O)(=O)c2cccc(Cl)c2)cn1` (racemic): the pEC50 at Hexokinase-4 is less than 4.00. Moreover, the %max in [1] was 0%.

Take `NC(=O)c1cnc(NC(=O)C(CC2CCOCC2)n2ncc3c(S(=O)(=O)C4CC4)cccc32)s1` (racemic): at Hexokinase-4, the pEC50 was 5.80. The compound further showed an inhibition at 10 µM against hERG (KCNH2) of 26%. Moreover, the %max in [1] amounted to 49%.

Take `O=C(Nc1ncc(F)s1)[C@H](CC1CCCC1)n1cc(S(=O)(=O)C2CC2)cn1`: on Hexokinase-4, the pEC50 is 6.20. For the same compound, the hepatic extraction ratio in [5] was 0.85; in data set [3], 0.91. Further, the %max in data set [1] worked out at 73%.

For the compound `O=C(Nc1ncc(Cl)s1)[C@H](CC1CCOCC1)n1cc(S(=O)(=O)C2CCCC2)cn1`, on Hexokinase-4, the pEC50 was 6.00. Moreover, in data set [1], the %max is 32%.

For the compound `NC(=O)c1cc(S(=O)(=O)C2CC2)c2cnn([C@@H](CC3CCOCC3)C(=O)Nc3ncc(F)s3)c2c1`, at Hexokinase-4, the negative-log EC50 (pEC50) was 7.00. Further, in [1], the %max stood at 97%.

Regarding `N#Cc1cc(S(=O)(=O)C2CC2)c2cnn(C(CC3CCOCC3)C(=O)Nc3ncc(F)s3)c2c1` (racemic), at Hexokinase-4, the pEC50 was 7.00. For the same compound, the inhibition at 10 µM on hERG (KCNH2) was 83%. Further, in [1], the %max was determined as 74%.

As for `Cc1nnc(NC(=O)C(CC2CCOCC2)n2ncc3c(S(=O)(=O)C4CC4)cccc32)s1` (racemic), the pEC50 at Hexokinase-4 is 5.30. Further, at hERG (KCNH2), 10 µM produced 23% inhibition. Besides, the %max in [1] worked out at 74%.

With `Cn1ccc(NC(=O)C(CC2CCOCC2)n2ncc3c(S(=O)(=O)C4CC4)cccc32)n1` (racemic), the negative-log EC50 (pEC50) on Hexokinase-4 is 5.92. At hERG (KCNH2), this compound yielded an inhibition at 10 µM of 23%. Also, in data set [1], the %max amounted to 79%.

Regarding `O=C(Nc1ccn(CCO)n1)C(CC1CCOCC1)n1ncc2c(S(=O)(=O)C3CC3)cccc21` (racemic), the pEC50 at Hexokinase-4 is 5.51. At hERG (KCNH2), this compound returned an inhibition at 10 µM of 12.5%. The %max in data set [1] is 73%.

In the case of `O=C(Nc1ncc(F)s1)[C@H](CC1CCOCC1)n1cc(S(=O)(=O)C2CC2)cn1`, the pEC50 at Hexokinase-4 was 5.40. Further, the hepatic extraction ratio in data set [5] and in [3] was 0.31 to 0.39 each time. In addition, in data set [1], the %max was 37%.

Take `O=C(Nc1ncc(Cl)s1)C(CC1CCOCC1)n1ncc2ccc(S(=O)(=O)C3CC3)cc21` (racemic): the pEC50 at Hexokinase-4 was less than 4.00. Further, the %max in [1] is 0%.

`NC(=O)c1cccnc1NC(=O)C(CC1CCOCC1)n1ncc2c(S(=O)(=O)C3CC3)cccc21` (racemic): the pEC50 on Hexokinase-4 is 6.70. The same compound gave an inhibition at 10 µM on hERG (KCNH2) of 29%. Besides, in data set [1], the %max turned out to be 38%.

Turning to `COc1cc(S(=O)(=O)C2CC2)c2cnn([C@@H](CC3CCOCC3)C(=O)Nc3ncc(F)s3)c2c1`, on Hexokinase-4, the pEC50 was 7.00. The compound also gave an inhibition at 10 µM on hERG (KCNH2) of 78%. Further, the %max in [1] is 100%.

With `O=C(Nc1ncc(F)s1)[C@H](CC1CCOCC1)n1ncc2c(S(=O)(=O)C3CC3)cncc21`, the outcome in the data set on Mus musculus [6] and in the data set on Mus musculus [11] was Active. Besides, the pEC50 on Hexokinase-4 was 7.10. In addition, at 10 µM the inhibition against hERG (KCNH2) was 46%. The hepatic extraction ratio in [7] was found to be 0.56; in data set [5], 0.33; in [3] it was 0.59. Besides, in data set [8], the half-life (in general, the time in which the quantity being followed falls by half) is 4.3 h. Also, the CL/F (usually clearance divided by bioavailability, as obtained after extravascular dosing) in data set [9] is 29 mL/min/kg. This compound also registered a Vd with Rattus norvegicus of 1.9 L/kg. The bioavailability (in general, dose-corrected exposure relative to a reference, in per cent) in data set [10] was determined as 51%. Further, the %max in data set [1] came to 71%.

Turning to `O=C(Nc1ncc(Cl)s1)[C@H](CC1CCOCC1)n1ncc2cc(S(=O)(=O)C3CC3)ccc21`, at Hexokinase-4, the pEC50 is 6.30. Further, the %max in data set [1] was determined as 26%.

For the compound `Cc1cc(S(=O)(=O)C2CC2)cc(=O)n1[C@@H](CC1CCOCC1)C(=O)Nc1ncc(Cl)s1`, the pEC50 at Hexokinase-4 was 5.92. Moreover, the result in the data set with Mus musculus [11] was Active. Moreover, the %max in data set [1] is 77%.

In the case of `O=C(Nc1ncc(F)s1)[C@H](CC1CCOCC1)n1ncc2c(S(=O)(=O)C3CC3)cc(O)cc21`, on Hexokinase-4, the pEC50 was 7.00. Moreover, the %max in [1] came out at 96%.

On to `O=C(Nc1ncc(F)s1)[C@H](CC1CCOCC1)n1ncc2c(S(=O)(=O)C3CC3)cc(F)cc21`, for which the pEC50 at Hexokinase-4 is 6.92. On hERG (KCNH2), 10 µM produced 77% inhibition. In [1], the %max came out at 91%.
